Key:
[1] = system: Cabernet Franc grapevines; assay: Fall foliar spray of Cabernet Franc grapevines, fruit maturity the following fall (juice pH and Brix); type: in vivo; conditions: for Brix of juice / pH of juice: 300 ppm in 0.1% Brij 98, fall foliar application, grapes harvested on Oct. 24, 2009; for Effect on maturation of the following crop of grapes (juice pH and Brix): foliar application at about 0.125 grams per vine in the fall
Experimental: (§1) A study was conducted to determine the effect of spraying grapevines with ABA analogs in the fail on bud break the following spring. Mature Cabernet Franc grapevines growing in a research vineyard in Benton Harbor, Mich. were sprayed to drip with surfactant alone or surfactant and ABA analog on Oct. 25, 2008. Vines were sprayed with approximately 300 ml (113 grams ABA analog/acre) applied to each of 9 vines per treatment arranged in three replicates of three vines each. The following spring prior to bud break the vines were pruned to 3-6 buds per spur and bud break of 40 buds per vine (4 buds on each of 10 spurs) was rated periodically using the BBCH (Biologische Bundesanstalt, Bundessortenamt und Chemische Industrie) scale of development where a rating of 1 represents the first sign of bud swelling and 99 represents a defoliated plant re-entering dormancy at the end of the growing season.
When the control fruit had reached maturity three clusters of grapes were randomly harvested from each 3 vine replicate. Brix and pH measurements were made of the juice expressed by hand squeezing the grape clusters. Both the pH and Brix readings were lower for the grapes from the ABA analog treated vines indicating a delay of fruit maturity.

[2] = system: Cabernet Franc grapevines; assay: Fall foliar spray of Cabernet Franc grapevines with PBI-425 or PBI-524, broken buds the following spring; type: in vivo; conditions: for Average number of broken buds per vine: Apr. 11, 2012; for Effect on bud break the following spring / Impact on bud mortality: foliar application at about 0.03-0.3 grams per vine in the fall
Experimental: A study was conducted to determine the elect of spraying Cabernet Franc grapevines with ABA analog PBI-425 or PBI-524 in the fall on bud break the following spring. Mature Cabernet Franc grapevines growing in a research vineyard in Benton Harbor, Mich. were sprayed to drip with surfactant alone or surfactant and ABA analog on Oct. 21, 2011. Vines were sprayed with approximately 300 ml applied to each of 9 vines per treatment arranged in three replicates of three vines each. Applied at about 100 gallons per acre 100 ppm treatment represents 37.8 grams per acre and 1000 ppm represents 378.4 grams per acre. In the spring after treatment prior to bud break the vines were pruned to 3-6 buds per spur and bud break of the entire vine was determined in the spring.

[3] = system: Cabernet Franc grapevines; assay: Fall foliar spray of mature Cabernet Franc grapevines, bud break the following spring (BBCH rating); type: in vivo; parameters: key to Average BBCH rating of bud developmental stages: BBCH scale: 1 = first bud swelling, 99 = defoliated, re-entering dormancy; conditions: for Average BBCH rating of bud developmental stages: 300 ppm in 0.1% Brij 98, fall foliar application; for Delay of bud break the following spring / Impact on bud mortality: foliar application at about 0.125 grams per vine in the fall
Experimental: as §1

Concord grapevines [4] = assay: Fall soil drench of potted Concord grapevines, bud break the following spring; type: in vivo; parameters: key to Average rating of bud break (1-6 scale): 1 = no growth to 6 = three or more leaves showing; conditions: for Average rating of bud break (1-6 scale): 100 ppm (100 mg/pot) fall soil drench
Experimental: A study was conducted to determine the effect of application of ABA or ABA analog as a soil drench in the fall on bud break of potted Concord grapevines the following spring. Two year old eco-dormant Concord grapevines were obtained from a Concord Nurseries in the spring. Bare-root vines were planted in 14 liter pots filled with Promix BX (available from Premier Horticulture Inc. Quakertown, Pa.) and grown outside for about 5 months (May October) prior to treatment. Plants received irrigation as needed and fertilized weekly (1 g/L all purpose fertilizer 20-20-20, The Scotts Company, Marysville, Ohio). Uniform plants were selected for the study. A total of 1000 mL of water or chemical solution was applied to the soil of each plant.
After chemical treatment, the ten replicate plants per treatment were arranged in a randomized complete block experimental design. The potted vines were surrounded by bark chips the depth of the soil in the pot to insulate the roots and prevent cold damage. The plants became dormant for the winter. In the following spring the vines were pruned to 5 buds per vine before bud break and bud break was monitored over time (Table 4). The buds were rated for bud break periodically on a scale from 1 for no growth to 6 for three or more leaves showing
Potted Concord grapevines were treated with 1000 mL water, solution containing 1000 mg ABA or solution containing 100 mg PBI-429. The dose of RBI-429 was used at one-tenth of ABA dose based on the preliminary results.

PF-11 nectarine trees [5] = assay: Fall foliar spray of PF-11 nectarine trees, fruit number per tree the following spring; type: in vivo
Experimental: (§2) A study was conducted to determine the effect of spraying nectarine trees with ABA or ABA analogs in the fall on bud break the following spring. Mature PF-11 nectarine trees were sprayed to drip with surfactant alone or surfactant and ABA or ABA analog on Oct. 19, 2009. Trees were sprayed with approximately 500 ml (20.5 grams ABA analog/acre) applied to each of 6 trees per treatment arranged in a randomized complete block design. The following spring bud break on pre-selected branches was monitored.

Concord grapevines [6] = assay: Repeated spray of potted Concord grapevines during the bud break period; type: in vivo; conditions: for Average number of broken buds per vine: 100 ppm in 0.05% Silwet L77, repeated spray
Experimental: A study was conducted to determine the effect of spraying Concord grapevines with ABA or ABA analog PBI-429 during bud break. Potted concord grapevines were placed in greenhouse conditions to promote bud break and the vines were repeatedly sprayed with ABA or ABA analog solutions. The vines were sprayed 2, 4, 8, 12 and 14 days after exposure of the vines into bud break promoting temperatures. Bud break was rated 6, 7, 8, 11, 12, 13, 14, 15, 19 and 20 days after vines were placed in warm bud break promoting conditions.

Concord grape vines = assay: Spring spray of eco-dormant field grown Concord grape vines, bud break; type: in vivo, Concord grapevines; conditions: 100 ppm PBI-429 plus 0.5% Brij 98, sprayed 2 times in spring
Experimental: A study was conducted to evaluate the effect of spraying eco-dormant Concord grape vines with ABA or ABA analog plus surfactants on bud break. Mature field grown Concord grape vines were sprayed to runoff 2 times in the spring after pruning and before bud swell. Three replicates of 3 vines each were treated with each treatment solution. Treatments were arranged in a randomized complete block design down a single vineyard row, Bud break was monitored by counting the number of broken buds of the distal 5 buds on 4 proximal canes on the middle vine of each 3 vine replicate. Bud break was only very slightly delayed by any of the treatments compared to the water sprayed control (Table 1).

PF-11 nectarine trees [7] = assay: Fall foliar spray of PF-11 nectarine trees, bud break the following spring; type: in vivo
Experimental: as §2

[8] = 100 ppm in 0.1% Silwet Brij 98, fall foliar application

In the case of C#CC1(C)CC(=O)C=C(C)C1(O)C=CC(C)=CC(=O)O (racemic) [PBI-524], the Brix of juice [1] is reported as 19.37, the pH of juice [1] is reported as 3.14 and the “Effect on maturation of the following crop of grapes (juice pH and Brix)” value [1] is reported as “delayed maturation”. The “Average number of broken buds per vine” value [2, 8] was 13, the “Average number of broken buds per vine” value ([2]; 1000 ppm in 0.1% Silwet Brij 98, fall foliar application) was 2 and the “Effect on bud break the following spring” value [2] was “delayed bud break”. The “Impact on bud mortality” value [2] was “without apparent impact on bud mortality”, the “Average BBCH rating of bud developmental stages” value (“Average BBCH rating” below) ([3]; May 1, 2009) was 0.0 and the “Average BBCH rating” value ([3]; May 5) was 0.4. For the same molecule, the “Average BBCH rating” value ([3]; May 12) was 1.0, the “Average BBCH rating” value ([3]; May 21) was 3.7 and the “Average BBCH rating” value ([3]; May 28) was 6.7. The “Delay of bud break the following spring” value [3] was “about 15 days” and the “Impact on bud mortality” value [3] was “without apparent impact on bud mortality”.

In the case of C#CC1(C)CC(=O)C=C(C)C1(O)C=CC(C)=CC(=O)O (centres unmarked) [PBI-425], the “Average number of broken buds per vine” value [2, 8] is reported as 11, the “Effect on bud break the following spring” value [2] is reported as “delayed bud break” and the “Impact on bud mortality” value [2] is reported as “without apparent impact on bud mortality”.

With C#CC1(C)CC(=O)C=C(C)C1(O)/C=C/C(C)=C\C(=O)OC (centres unmarked) [PBI-429, 8′acetylene-ABA methyl ester] the Brix of juice [1] was 19.32, the pH of juice [1] was 3.16 and the “Effect on maturation of the following crop of grapes (juice pH and Brix)” value [1] was “delayed maturation”. The “Delay of bud break compared to ABA treated or untreated vines” value (Concord grapevines [4]; 100 mg fall soil drench) was “about 2 weeks”, the “Average rating of bud break (1-6 scale)” value (Concord grapevines [4]; Apr. 23, 2008) was 1.0 and the “Average rating of bud break (1-6 scale)” value (Concord grapevines [4]; April 28) was 1.0. The “Average rating of bud break (1-6 scale)” value (Concord grapevines [4]; April 30) was 1.0, the “Average rating of bud break (1-6 scale)” value (Concord grapevines [4]; May 2) was 1.0 and the “Average rating of bud break (1-6 scale)” value (Concord grapevines [4]; May 5) was 1.0. The “Average rating of bud break (1-6 scale)” value (Concord grapevines [4]; May 7) was 1.0, the “Average rating of bud break (1-6 scale)” value (Concord grapevines [4]; May 9) was 1.0 and the “Average rating of bud break (1-6 scale)” value (Concord grapevines [4]; May 12) was 1.0. The “Average rating of bud break (1-6 scale)” value (Concord grapevines [4]; May 14) was 1.0, the “Average rating of bud break (1-6 scale)” value (Concord grapevines [4]; May 16) was 1.0 and the “Average rating of bud break (1-6 scale)” value (Concord grapevines [4]; May 19) was 1.2. The “Average rating of bud break (1-6 scale)” value (Concord grapevines [4]; May 21) was 1.2, the “Average rating of bud break (1-6 scale)” value (Concord grapevines [4]; May 23) was 1.8 and the “Average rating of bud break (1-6 scale)” value (Concord grapevines [4]; May 28) was 2.7. The “Average number of fruit per tree” value (PF-11 nectarine trees [5]; 100 ppm in 0.1% Brij 98, fall foliar application, June 10) was 75, the “Effect on number of fruit per tree the following spring” value (PF-11 nectarine trees [5]; fall foliar application) was “reduced the number of fruit per tree” and the “Average BBCH rating” value ([3]; May 1, 2009) was 0.1. The “Average BBCH rating” value ([3]; May 5) was 0.4, the “Average BBCH rating” value ([3]; May 12) was 1.0 and the “Average BBCH rating” value ([3]; May 21) was 3.2. The “Average BBCH rating” value ([3]; May 28) was 6.0, the “Delay of bud break the following spring” value [3] was “about 15 days” and the “Impact on bud mortality” value [3] was “without apparent impact on bud mortality”. For the same molecule, the “Average number of broken buds per vine” value (Concord grapevines [6]; 6 days after warming) was 0.7, the “Average number of broken buds per vine” value (Concord grapevines [6]; 7 days after warming) was 0.7 and the “Average number of broken buds per vine” value (Concord grapevines [6]; 8 days after warming) was 1.7. For the same molecule, the “Average number of broken buds per vine” value (Concord grapevines [6]; 11 days after warming) was 2.5, the “Average number of broken buds per vine” value (Concord grapevines [6]; 12 days after warming) was 2.5 and the “Average number of broken buds per vine” value (Concord grapevines [6]; 13 days after warming) was 3.0. For the same molecule, the “Average number of broken buds per vine” value (Concord grapevines [6]; 14 days after warming) was 3.0, the “Average number of broken buds per vine” value (Concord grapevines [6]; 15 days after warming) was 4.0 and the “Average number of broken buds per vine” value (Concord grapevines [6]; 19 days after warming) was 4.3. The “Average number of broken buds per vine” value (Concord grapevines [6]; 20 days after warming) was 4.3, the “Effect on average number of broken buds over time” value (Concord grapevines [6]; repeated spray application during the bud break period) was “not significantly impacted” and the “Average percent broken buds” value (Concord grape vines; April 24) was 8%. The “Average percent broken buds” value (Concord grape vines; April 30) was 18%, the “Potency relative to ABA in delaying bud break” value (PF-11 nectarine trees [7]; 100 ppm PBI-429 versus 10,000 ppm ABA, fall foliar application) was “about 100 times” and the “Percentage of broken floral buds” value (PF-11 nectarine trees [7]; 100 ppm in 0.1% Brij 98, fall foliar application, April 8) was 56 Percentage.

— US20130072385A1, “METHODS FOR DELAYING BUD BREAK BY APPLYING ABA ANALOGS” (priority 2011, published 2013)
